Measured values taken from the supplement of paper PMC10307832.

Key:
Experiment in all cases: relative viability (nuclei count vs DMSO), 5 days (fraction); higher = more cells survive
CAP-232 + Linsitinib = compound: C[C@H]([C@@H](C(=O)N)NC(=O)[C@@H]1CSSC[C@@H](C(=O)N[C@H](C(=O)N[C@@H](C(=O)N[C@H](C(=O)N1)CCCCN)CC2=CNC3=CC=CC=C32)CC4=CC=C(C=C4)O)NC(=O)[C@@H](CC5=CC=CC=C5)N)O [CAP-232] + C[C@]1(O)C[C@@H](c2nc(-c3ccc4ccc(-c5ccccc5)nc4c3)c3c(N)nccn32)C1 [Linsitinib] (partner 1 µM)
In short: (§1)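 Relative viability equals treated-well nuclei counts divided by vehicle-well nuclei counts. Counts came from 4× images of lung cancer cell lines grown in 1536-well plates for 5 days after pin-tool dosing on the day after seeding. Dosing used one drug alone or a fixed anchor-drug dose plus five library-drug doses (not always all listed) in √10 steps, and values are medians of duplicate plates.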

CAP-232 + Tozasertib = compound: C[C@H]([C@@H](C(=O)N)NC(=O)[C@@H]1CSSC[C@@H](C(=O)N[C@H](C(=O)N[C@@H](C(=O)N[C@H](C(=O)N1)CCCCN)CC2=CNC3=CC=CC=C32)CC4=CC=C(C=C4)O)NC(=O)[C@@H](CC5=CC=CC=C5)N)O [CAP-232] + Cc1cc(Nc2cc(N3CCN(C)CC3)nc(Sc3ccc(NC(=O)C4CC4)cc3)n2)n[nH]1 [Tozasertib] (partner 0.1 µM)
In short: as §1

CAP-232 + Dasatinib = compound: C[C@H]([C@@H](C(=O)N)NC(=O)[C@@H]1CSSC[C@@H](C(=O)N[C@H](C(=O)N[C@@H](C(=O)N[C@H](C(=O)N1)CCCCN)CC2=CNC3=CC=CC=C32)CC4=CC=C(C=C4)O)NC(=O)[C@@H](CC5=CC=CC=C5)N)O [CAP-232] + Cc1nc(Nc2ncc(C(=O)Nc3c(C)cccc3Cl)s2)cc(N2CCN(CCO)CC2)n1 [Dasatinib] (partner 0.075 µM)
In short: as §1

CAP-232 + Vorinostat = compound: C[C@H]([C@@H](C(=O)N)NC(=O)[C@@H]1CSSC[C@@H](C(=O)N[C@H](C(=O)N[C@@H](C(=O)N[C@H](C(=O)N1)CCCCN)CC2=CNC3=CC=CC=C32)CC4=CC=C(C=C4)O)NC(=O)[C@@H](CC5=CC=CC=C5)N)O [CAP-232] + O=C(CCCCCCC(=O)Nc1ccccc1)NO [Vorinostat] (partner 1 µM)
In short: as §1

CAP-232 + Olaparib = compound: C[C@H]([C@@H](C(=O)N)NC(=O)[C@@H]1CSSC[C@@H](C(=O)N[C@H](C(=O)N[C@@H](C(=O)N[C@H](C(=O)N1)CCCCN)CC2=CNC3=CC=CC=C32)CC4=CC=C(C=C4)O)NC(=O)[C@@H](CC5=CC=CC=C5)N)O [CAP-232] + O=C(c1cc(Cc2n[nH]c(=O)c3ccccc23)ccc1F)N1CCN(C(=O)C2CC2)CC1 [Olaparib] (partner 8 µM)
In short: as §1

Cell Line | relative viability (CAP-232 + Linsitinib; first compound 0.4 µM) | relative viability (CAP-232 + Linsitinib; first compound 1.265 µM) | relative viability (CAP-232 + Linsitinib; first compound 4 µM) | relative viability (CAP-232 + Linsitinib; first compound 12.65 µM) | relative viability (CAP-232 + Tozasertib; first compound 0.4 µM) | relative viability (CAP-232 + Tozasertib; first compound 1.265 µM) | relative viability (CAP-232 + Tozasertib; first compound 4 µM) | relative viability (CAP-232 + Tozasertib; first compound 12.65 µM) | relative viability (CAP-232 + Dasatinib; first compound 0.4 µM) | relative viability (CAP-232 + Dasatinib; first compound 1.265 µM) | relative viability (CAP-232 + Dasatinib; first compound 4 µM) | relative viability (CAP-232 + Dasatinib; first compound 12.65 µM) | relative viability (CAP-232 + Vorinostat; first compound 0.4 µM) | relative viability (CAP-232 + Vorinostat; first compound 1.265 µM) | relative viability (CAP-232 + Vorinostat; first compound 4 µM) | relative viability (CAP-232 + Vorinostat; first compound 12.65 µM) | relative viability (CAP-232 + Olaparib; first compound 0.4 µM) | relative viability (CAP-232 + Olaparib; first compound 1.265 µM) | relative viability (CAP-232 + Olaparib; first compound 4 µM) | relative viability (CAP-232 + Olaparib; first compound 12.65 µM)
201T | 1.05 | 0.974 | 0.978 | 0.948 | 1.04 | 0.91 | 0.979 | 0.926 | 0.536 | 0.549 | 0.614 | 0.556 | 1.05 | 0.98 | 1 | 0.995 | 0.892 | 0.833 | 0.871 | 0.854
A549 | 0.621 | 0.59 | 0.583 | 0.531 |  |  |  |  |  |  |  |  |  |  |  |  | 0.211 | 0.292 | 0.396 | 0.326
A-427 | 1.14 | 1.09 | 1.15 | 1.12 | 0.164 | 0.186 | 0.149 | 0.207 | 0.646 | 0.467 | 0.679 | 0.76 | 0.937 | 0.882 | 0.879 | 0.893 | 0.813 | 0.646 | 0.808 | 0.814
ABC-1 | 1.07 | 0.781 | 0.726 | 0.427 | 0.155 | 0.143 | 0.179 | 0.148 | 0.582 | 0.562 | 0.53 | 0.448 | 1.48 |  | 1.13 | 0.952 | 0.778 |  | 0.665 | 0.368
BEN | 0.952 | 0.944 | 0.818 | 0.896 | 0.413 | 0.547 | 0.387 | 0.635 | 0.39 | 0.261 | 0.264 | 0.424 | 0.547 | 0.57 | 0.565 | 0.479 | 1.02 | 1.04 | 0.959 | 1.07
CAL-12T | 0.812 | 0.784 | 0.892 | 0.966 | 0.434 | 0.264 | 0.262 | 0.358 | 0.32 | 0.409 | 0.521 | 0.138 | 0.805 | 0.752 | 0.832 | 0.431 | 0.778 | 0.767 | 0.696 | 0.6
COR-L23 | 0.92 | 1 | 0.971 | 0.676 | 0.176 | 0.194 | 0.187 | 0.193 | 0.506 | 0.575 | 0.531 | 0.342 | 0.518 | 0.474 | 0.488 | 0.381 | 0.43 | 0.403 | 0.404 | 0.279
ChaGo-K-1 |  |  |  |  | 0.218 | 0.237 | 0.245 | 0.213 | 0.666 | 0.611 | 0.614 | 0.506 | 0.835 | 0.724 | 0.709 | 0.71 | 0.425 | 0.428 | 0.456 | 0.421
HCC-44 | 0.817 | 0.666 | 0.754 | 0.627 | 0.919 | 0.95 | 1.18 | 1.09 |  |  |  |  | 1.08 | 1.08 | 1.15 | 1.13 | 0.99 | 0.975 | 0.943 | 1.04
IA-LM | 0.828 | 0.611 | 0.711 | 0.394 |  |  |  |  |  |  |  |  | 0.821 | 1.01 | 0.939 | 0.822 | 0.784 | 0.86 | 0.993 | 0.405
NCI-H522 |  |  |  |  | 0.555 | 0.58 | 0.503 | 0.544 | 1.1 | 0.73 | 0.914 | 0.735 | 0.971 | 0.9 | 0.93 | 0.867 | 0.78 | 0.587 | 0.638 | 0.789
NCI-H1563 | 1.36 | 1.12 | 1.21 | 0.829 |  |  |  |  | 0.449 | 0.448 | 0.477 | 0.432 |  |  |  |  |  |  |  | 
NCI-H1650 |  |  |  |  | 0.427 | 0.38 | 0.391 | 0.213 | 0.344 | 0.27 | 0.282 | 0.231 | 0.645 | 0.514 | 0.622 | 0.183 | 1.04 | 0.799 | 0.836 | 0.493
NCI-H1703 | 0.489 | 0.642 | 0.933 | 0.873 |  |  |  |  |  |  |  |  |  |  |  |  | 0.388 | 0.468 | 0.315 | 0.388
NCI-H1792 | 0.493 | 0.56 | 0.654 | 0.285 |  |  |  |  | 0.811 | 0.743 | 0.95 | 0.78 |  |  |  |  | 0.51 | 0.642 | 0.623 | 0.235
NCI-H2170 |  |  |  |  | 0.852 | 0.667 | 0.615 | 0.73 | 0.684 | 0.558 | 0.557 | 0.58 | 0.823 | 0.835 | 0.886 | 0.794 | 0.622 | 0.588 | 0.738 | 0.636
NCI-H2342 |  |  |  |  | 0.479 | 0.459 | 0.436 | 0.437 | 0.308 | 0.334 | 0.291 | 0.321 | 0.688 | 0.647 | 0.623 | 0.742 | 0.447 | 0.441 | 0.46 | 0.396
SW 900 |  |  |  |  | 0.658 | 0.593 | 0.583 | 0.582 | 0.644 | 0.614 | 0.64 | 0.591 | 0.727 | 0.453 | 0.432 | 0.429 | 0.766 | 0.883 | 0.698 | 0.99
